Data: ChEMBL document CHEMBL6127055, “Discovery of the therapeutic potential of PPARδ agonist bearing 1,3,4- thiadiazole in inflammatory disorders” (Eur J Med Chem, 2024)

Key:
[1] = Tmax in Sprague-Dawley rat at 10 mg/kg, po measured after 24 hrs by LCMS analysis; type: ADME, organism-based; settings: in vivo
[2] = molecular target: CYP2D6 (Homo sapiens, UniProt P10635); assay: Inhibition of CYP2D6 in human liver microsomes at 10 uM using dextromethophan O-demethylase as substrate preincubated for 5 mins followed by NADPH regenerating system addition and measured after 15 mins by LC-MS/MS analysis relative to control; type: ADME, Microsome; settings: probe dextromethophan (dextromethophan O-demethylase), time 20 min
Sequence of CYP2D6 (P10635 whole entry): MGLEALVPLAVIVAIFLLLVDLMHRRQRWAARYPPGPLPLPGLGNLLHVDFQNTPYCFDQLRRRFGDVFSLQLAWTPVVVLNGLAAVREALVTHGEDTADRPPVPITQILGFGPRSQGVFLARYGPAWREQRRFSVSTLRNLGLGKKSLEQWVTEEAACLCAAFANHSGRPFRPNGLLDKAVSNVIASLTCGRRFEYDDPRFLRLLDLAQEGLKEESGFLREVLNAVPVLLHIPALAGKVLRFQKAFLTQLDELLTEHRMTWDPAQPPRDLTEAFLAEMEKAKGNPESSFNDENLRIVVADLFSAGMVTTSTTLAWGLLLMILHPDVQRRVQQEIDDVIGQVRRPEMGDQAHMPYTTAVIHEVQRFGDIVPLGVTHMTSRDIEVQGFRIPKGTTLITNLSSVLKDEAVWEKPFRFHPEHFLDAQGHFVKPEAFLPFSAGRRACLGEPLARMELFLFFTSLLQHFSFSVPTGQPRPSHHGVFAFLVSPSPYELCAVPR

[3] = Metabolic stability in human liver microsomes assessed as compound remaining at 1 uM after 30 mins in presence of NADPH regeneration system by LC-MS/MS analysis; type: ADME, Microsome; settings: read-out: Stability
[4] = molecular target: T1, UGT2B7 (Homo sapiens, UniProt P16662); assay: Inhibition of UGT2B7 (unknown origin) at 10 uM relative to control
T1 sequence (P16662 whole entry): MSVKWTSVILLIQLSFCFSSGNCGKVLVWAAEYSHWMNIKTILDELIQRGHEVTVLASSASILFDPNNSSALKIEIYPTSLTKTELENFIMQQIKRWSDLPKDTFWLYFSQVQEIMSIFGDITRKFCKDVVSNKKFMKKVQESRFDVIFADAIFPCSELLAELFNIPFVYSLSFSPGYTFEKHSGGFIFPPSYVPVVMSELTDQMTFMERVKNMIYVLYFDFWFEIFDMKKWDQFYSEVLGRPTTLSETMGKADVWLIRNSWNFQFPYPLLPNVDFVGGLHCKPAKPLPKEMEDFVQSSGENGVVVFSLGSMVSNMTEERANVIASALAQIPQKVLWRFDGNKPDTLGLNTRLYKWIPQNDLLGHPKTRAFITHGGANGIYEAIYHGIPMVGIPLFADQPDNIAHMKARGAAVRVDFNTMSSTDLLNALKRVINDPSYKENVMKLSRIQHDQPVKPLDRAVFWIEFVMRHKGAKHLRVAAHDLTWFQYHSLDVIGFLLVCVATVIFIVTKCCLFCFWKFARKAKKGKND

[5] = molecular target: CYP2C19 (Homo sapiens, UniProt P33261); assay: Inhibition of CYP2C19 in human liver microsomes at 10 uM using S-mephenytoin 4-hydroxylase as substrate preincubated for 5 mins followed by NADPH regenerating system addition and measured after 15 mins by LC-MS/MS analysis relative to control; type: ADME, Microsome; settings: probe S-mephenytoin (S-mephenytoin 4-hydroxylase), time 20 min
Sequence of CYP2C19 (P33261 whole entry): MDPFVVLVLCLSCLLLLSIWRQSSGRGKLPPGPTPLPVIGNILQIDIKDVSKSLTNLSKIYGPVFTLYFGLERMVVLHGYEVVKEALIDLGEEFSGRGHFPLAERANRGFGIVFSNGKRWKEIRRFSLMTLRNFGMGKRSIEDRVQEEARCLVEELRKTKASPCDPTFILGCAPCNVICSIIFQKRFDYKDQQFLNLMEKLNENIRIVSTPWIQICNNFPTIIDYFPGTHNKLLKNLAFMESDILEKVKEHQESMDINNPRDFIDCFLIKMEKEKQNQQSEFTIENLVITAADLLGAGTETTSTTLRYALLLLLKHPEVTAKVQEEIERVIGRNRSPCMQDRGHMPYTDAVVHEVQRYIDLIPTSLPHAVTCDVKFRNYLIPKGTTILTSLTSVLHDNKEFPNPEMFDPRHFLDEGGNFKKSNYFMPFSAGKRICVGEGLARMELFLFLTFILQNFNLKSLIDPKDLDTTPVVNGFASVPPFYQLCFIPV

[6] = Apparent permeability across basolateral to apical side in human Caco-2 cells at 10 uM incubated for 5 hrs by LC-MS/MS method; type: ADME, cell-based
[7] = molecular target: T2, UGT1A6 (Homo sapiens, UniProt P19224); assay: Inhibition of UGT1A6 (unknown origin) at 10 uM relative to control
T2 sequence (P19224 whole entry): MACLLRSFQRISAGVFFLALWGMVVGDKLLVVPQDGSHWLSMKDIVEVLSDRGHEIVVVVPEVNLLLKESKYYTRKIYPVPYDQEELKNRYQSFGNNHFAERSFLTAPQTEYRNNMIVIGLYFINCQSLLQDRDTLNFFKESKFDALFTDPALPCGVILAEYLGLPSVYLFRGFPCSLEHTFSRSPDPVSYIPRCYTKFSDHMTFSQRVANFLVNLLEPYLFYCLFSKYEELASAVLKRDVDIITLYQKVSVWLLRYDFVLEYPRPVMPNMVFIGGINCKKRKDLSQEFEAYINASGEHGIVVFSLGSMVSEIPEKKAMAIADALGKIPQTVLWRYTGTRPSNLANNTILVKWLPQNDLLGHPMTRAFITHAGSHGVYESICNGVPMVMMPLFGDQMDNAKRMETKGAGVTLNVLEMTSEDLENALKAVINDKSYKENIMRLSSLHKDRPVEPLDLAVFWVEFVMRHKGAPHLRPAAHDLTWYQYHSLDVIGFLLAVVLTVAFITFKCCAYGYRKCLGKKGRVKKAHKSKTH

[8] = test system: RAW264.7; assay: Cytotoxicity against mouse RAW264.7 cells assessed as reduction in cell viability incubated for 24 hrs by CCK-8 assay; type: toxicity, cell-based; settings: raw264.7, 24 h
[9] = Stability in human plasma assessed as compound remaining after 120 mins; type: ADME, cell-free; settings: read-out: Stability
[10] = Metabolic stability in rat liver microsomes assessed as compound remaining at 1 uM after 30 mins in presence of NADPH regeneration system by LC-MS/MS analysis; type: ADME, Microsome; settings: read-out: Stability
[11] = Half-life in Sprague-Dawley rat at 10 mg/kg, po measured after 24 hrs by LCMS analysis; type: ADME, organism-based; settings: in vivo
[12] = molecular target: T3, UGT1A9 (Homo sapiens, UniProt O60656); assay: Inhibition of UGT1A9 (unknown origin) at 10 uM relative to control
T3 sequence (O60656 whole entry): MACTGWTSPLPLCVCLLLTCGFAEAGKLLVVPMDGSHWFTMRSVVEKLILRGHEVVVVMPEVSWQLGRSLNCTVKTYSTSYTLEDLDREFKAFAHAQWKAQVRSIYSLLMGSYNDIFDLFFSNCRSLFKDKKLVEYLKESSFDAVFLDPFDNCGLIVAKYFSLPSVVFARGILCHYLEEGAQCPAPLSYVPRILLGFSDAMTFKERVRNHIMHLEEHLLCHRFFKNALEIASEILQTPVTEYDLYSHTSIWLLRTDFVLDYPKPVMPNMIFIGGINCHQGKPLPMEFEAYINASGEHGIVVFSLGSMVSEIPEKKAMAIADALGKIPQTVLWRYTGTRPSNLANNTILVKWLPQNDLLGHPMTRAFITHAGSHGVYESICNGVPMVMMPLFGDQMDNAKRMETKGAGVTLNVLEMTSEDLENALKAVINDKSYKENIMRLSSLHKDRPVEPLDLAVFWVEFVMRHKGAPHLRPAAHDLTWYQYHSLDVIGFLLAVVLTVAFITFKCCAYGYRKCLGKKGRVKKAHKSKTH

[13] = AUCinfinity in Sprague-Dawley rat at 1 mg/kg, iv measured after 24 hrs by LCMS analysis; type: ADME, organism-based; settings: in vivo

- Tmax [1]: 2 h
- inhibition at 0.25 h, 10 µM [2]: 0%
- remaining at 0.5 h, 1 µM [3]: 91%
- inhibition at 10 µM [4]: 12.2%
- inhibition at 0.25 h, 10 µM [5]: 0%
- Papp B→A at 5 h, 10 µM [6]: 0.224 ×10⁻⁶ cm/s
- inhibition at 10 µM [7]: 0%
- remaining at 2 h [9]: > 100%
- remaining at 0.5 h, 1 µM [10]: 83.4%
- half-life [11]: 3.4 h
- inhibition at 10 µM [12]: 0.5%
- AUC(0-inf) [13]: 4.33 µM·h
Structure (SMILES): Cc1cc(SCc2nnc(-c3ccc(C(F)(F)F)cc3)s2)ccc1OCC(=O)O
- Activity [8]: Non-Toxic
